# The source made the active and inactive calls.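 The calls were made as follows: active = compounds giving half or more protection of infected cells from virus-caused growth loss, again on retest; inactive = the rest.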
# Test system: CEM cells HIV-1 protection, formazan growth assay
# Test: NCI AIDS Antiviral Assay
# Conditions: for IC50: measured here: growth of uninfected CEM cells
# How it was run: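 Steps: treat uninfected and HIV-1-infected human CEM cells at five drug levels; quantify growth by soluble formazan; retest any compound reaching 50% protection; classify actives from the retest.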
Compound,EC50,IC50,outcome
CSc1ccc(C(=O)C(=O)c2ccc(SC)s2)s1,> 200 µM,155 µM,–
COc1cc(C2C(C#N)=C(N)OC3=C2CCS(=O)(=O)c2ccc(C)cc23)cc(OC)c1OC (configuration not stated),> 200 µM,> 200 µM,–
O=c1[nH]c(Nc2ccc(Br)c(C(F)(F)F)c2)nc2nc[nH]c12,> 151 µM,28.2 µM,–
O=C(O)c1ccc(/C=N\N(CCO)C2=NCCN2)cc1,> 200 µM,> 200 µM,–
N#C/C(=C\NC(N)=S)c1nc2ccccc2s1,–,–,inactive
COC1C(C)OC(OC2CC(C)(O)C(C(=O)O)c3cc4c(c(O)c32)C(=O)c2c(O)cc3c(c2C4=O)OC2OC3(C)C(O)C(N(C)C)C2O)C(OC)C1(C)OC (configuration not stated),–,–,inactive
CCOC(=O)c1ccc(CS(=O)c2ccccc2)c([N+](=O)[O-])c1 (configuration not stated),> 204 µM,3.47 µM,–
O=[N+]([O-])c1ccccc1S(=O)NCc1c(Cl)cccc1Cl (configuration not stated),> 200 µM,> 200 µM,–
CCOC(=O)c1c(SC(=O)c2ccc(OC)cc2)n(-c2ccccc2)c(=S)n(-c2ccccc2)c1=O,> 200 µM,28.2 µM,–
c1ccc2c(c1)N=C(c1ccc3ccccc3c1)CC(c1cccc3ccccc13)S2 (configuration not stated),> 2.51 µM,> 2.51 µM,–
COc1ccc2nc3ccc(OC)cc3c(S(=O)Cc3ccccc3)c2c1 (configuration not stated),> 200 µM,1.23 µM,–
CN1CCN(Cc2ccccc2)CC1CC#N (configuration not stated),1.95 µM,> 200 µM,–
Cc1cc2c(cc1Cl)Sc1nccn1S2(=O)=O,40.7 µM,79.4 µM,–
Cc1ccc(C(=O)/C=C/c2cccc([N+](=O)[O-])c2)cc1,> 37.2 µM,> 37.2 µM,–
Cc1ccccc1NC(=O)c1c(C)oc2c1C(=O)c1ccccc1C2=O,> 39.8 µM,> 39.8 µM,–
O=C1OC(c2ccccc2)(c2ccccc2)CC1CN1CCOCC1 (configuration not stated),> 57.5 µM,12 µM,–
C#CCOC(=O)C(=[N+]=[N-])C(=O)CC(C)C,> 200 µM,> 200 µM,–
Cc1cc2c(C)n(Cc3ccc(Cl)cc3Cl)nc2c(C(=O)O)c1C,> 501 µM,83.2 µM,–
CC(=O)N1CCc2cc(S(C)(=O)=O)c3c(c21)CCC3,–,–,inactive
COc1cc(/C=C2\N=C(C)N(n3c(-c4ccccc4)nc4ccccc4c3=O)C2=O)cc(OC)c1OC,> 200 µM,38.9 µM,–
COC=C1C(=O)OC(C)(C)OC1=O,28.8 µM,107 µM,–
CC12CCC(C(Br)C1=O)C2(C)CBr (configuration not stated),–,–,inactive
COS(=O)CCOC(=O)c1ccccc1SSc1ccccc1C(=O)OCCS(=O)OC (configuration not stated),112 µM,> 200 µM,–

Compound,EC50,IC50,outcome
CC(=O)N(CC(=O)Nc1ccc(S(N)(=O)=O)cc1)C(C)C,> 200 µM,> 200 µM,–
CN(C)C1C(=O)C(C(N)=O)=C(O)C2(O)C(=O)C3=C(O)c4c(O)cccc4C(C)(O)C3CC12.[Cl][Sb]([Cl])[Cl] (configuration not stated),> 200 µM,35.5 µM,–
CN1CCN(c2nc3cc(F)ccc3n3cccc23)CC1,> 200 µM,27.5 µM,–
COc1ccc(COCC[C@H](C)OC2OC(CO[Si](C)(C)C(C)(C)C)C(OC(=O)CCCN=[N+]=[N-])C(OC(=O)CCCN=[N+]=[N-])C2OC(=O)CCCN=[N+]=[N-])cc1 (some centres not stated),> 200 µM,26.3 µM,–
COc1ccccc1C1SCc2nc3ccccc3n21 (configuration not stated),> 91.2 µM,36.3 µM,–
CCCCCCOP(=O)(OCCCCCC)OC(C(=O)OC)C(F)(F)F (configuration not stated),> 200 µM,44.7 µM,–
C=CC[C@]12CC[C@H](O)[C@@]1(C)CCC(=O)/C2=N\N,–,–,inactive
O=c1oc2cccnc2n1CCN1CCN(c2ccc(Oc3ccccc3)cc2)CC1,> 200 µM,52.5 µM,–
Cc1cccc(C(C)C)c1NC(=O)C(=O)C(C(=O)c1ccccc1F)C1OC(=O)c2ccccc21 (configuration not stated),> 200 µM,15.8 µM,–
Cc1cc2c(O)c(c1)COCc1cc(C)cc(c1O)COCc1cc(C)cc(c1O)COC2,> 200 µM,138 µM,–
CCOC(=O)C1Cc2c([nH]c(=O)[nH]c2=O)OC1c1ccc([N+](=O)[O-])cc1 (configuration not stated),> 363 µM,> 363 µM,–
O=C(O/N=C1/CCC/C1=C\c1ccccc1)c1ccc(Cl)cc1,–,–,inactive
O=c1[nH]nc(Cc2ccccc2)n1C1CC1,> 200 µM,> 200 µM,–
CC(=O)O[C@H]1CC[C@]2(C)C3=CC[C@]4(C)[C@@H](C(C)=O)CC[C@H]4[C@@]34C=C[C@]2(C1)C1C(=O)OC(=O)C14 (some centres not stated),> 200 µM,70.8 µM,–
C=CC(=O)c1ccc2c(c1)OCCOCCOCCOCCOCCO2,> 676 µM,7.08 µM,–
CS/C(C)=N/OC(=O)NCCCCNc1ccc(N=[N+]=[N-])cc1,> 148 µM,34.7 µM,–
CSc1ccc(Cc2cc(C(C)(C)C)cc(C(C)(C)C)c2O)cc1,–,–,inactive
C[N+](C)(C)CCC(=O)CC[N+](C)(C)C,> 8.32 µM,> 8.32 µM,–
OCC1OC(c2scc3c(=S)nc[nH]c23)C(O)C1O (configuration not stated),> 200 µM,12.6 µM,–
Nc1ncn(C2OC(COP(=O)(O)O)C(O)C2O)c(=O)n1 (configuration not stated),> 200 µM,8.51 µM,–
C[N+]12CCCCC1CC(=O)CC2 (configuration not stated),> 851 µM,> 851 µM,–
Ic1ccc(SSc2ccc(I)cc2)cc1,> 200 µM,6.61 µM,–
Cc1ccccc1N=Nc1c(-c2ccccc2)nn(C(=O)CC(=O)Nc2cccc(Cl)c2)c1-c1ccccc1,> 25.1 µM,> 25.1 µM,–

Compound,EC50,IC50,outcome
Cc1nnc(Nc2ccccc2)o1,–,–,inactive
CC(=O)OC1CSS(=O)CC1OC(C)=O (configuration not stated),> 513 µM,22.9 µM,–
C=C1c2cc3c(cc2CC12Cc1cc4c(cc1C2=O)CCC4)CCC3 (configuration not stated),> 200 µM,> 200 µM,–
COc1cc(NCCCNCC(C)(C)C)c2ncccc2c1,> 200 µM,81.3 µM,–
O=C(O)C(Cc1ccccc1)NCc1c(O)ccc2c(-c3ccccc3)cc(=O)oc12 (configuration not stated),> 200 µM,> 200 µM,–
CCN(CC)CCOc1ccc(/C(C#N)=C/c2ccccc2OCCN(CC)CC)cc1,> 200 µM,2.63 µM,–
CC(=O)O.[Ag],> 64.6 µM,18.2 µM,–
CC1=C(C(=O)Nc2cccc(Cl)c2)C(c2ccccc2O)C(C(=O)Nc2cccc(Cl)c2)=C(C)N1,> 50.1 µM,12 µM,–
CC(=O)/C=C(/C=N/O)c1ccccc1,> 200 µM,> 200 µM,–
Cn1cc(N)cc1C(=O)Nc1ccc(S(=O)(=O)O)c2cc(S(=O)(=O)O)ccc12,> 490 µM,> 490 µM,–
O=C1c2c(O)ccc(O)c2C(=O)c2c(NCCCO)ccc(NCCCO)c21,13.5 µM,18.6 µM,–
COc1ccc(C(=O)c2ccc(OC)c3ccccc23)c2ccccc12,> 200 µM,1.51 µM,–
COC(=O)N1C2CCCCC2=NN(c2ccccc2)N1C(=O)OC (configuration not stated),> 204 µM,> 204 µM,–
COc1ccc(N=Nc2ccc3oc(=O)c(C(=O)Nc4ccccc4C)cc3c2)cc1,> 200 µM,66.1 µM,–
O=S(=O)(Oc1ccccn1)c1ccc(Br)cc1,> 200 µM,> 200 µM,–
Cc1cc(C)c(-c2noc(-c3ccc(Cl)cc3)c2C2=NCCN2)c(C)c1,–,–,inactive
CC(C)N(C(=O)C12C3C4C1C1C2C3C41C(=O)C(C)(C)C)C(C)C (configuration not stated),> 158 µM,138 µM,–
Cc1cc2[nH]c3[nH]c(=O)[nH]c(=O)c3c2cc1C,> 200 µM,170 µM,–
O=c1c(Cl)cc2nc3ccccc3sc-2c1Cl,> 9.55 µM,8.91 µM,–
CC(=O)Nc1cc(N=Nc2ccc(N=Nc3ccc(NC(=O)c4ccc(N)cc4)cc3C)cc2C)c(S(=O)(=O)O)cc1N=Nc1ccc(C(=O)O)cc1,> 123 µM,115 µM,–
CCOc1ccccc1N1C(=O)C(=O)C(c2nc3ccccc3o2)/C(=N\N)C1=O (configuration not stated),–,–,inactive
Cc1ccc(S(=O)(=O)OCCOS(=O)(=O)c2ccc(C)cc2)cc1,> 36.3 µM,> 36.3 µM,–
Cc1cc(C)c(/C=C(\C(=C/c2c(C)cc(C)cc2C)[N+](=O)[O-])[N+](=O)[O-])c(C)c1,> 100 µM,> 100 µM,–

Compound,EC50,IC50,outcome
COc1cc2c(c(C(C)(C)C)c1)OC1(O)C2=CC(=O)C=C1C(C)(C)C (configuration not stated),> 20 µM,0.372 µM,–
CCN(CC)CCSc1nc2c([N+](=O)[O-])cccc2[nH]1,–,–,inactive
CCOC(=O)c1c(N)sc2c1C(C)(C(=O)OCC)CC2 (configuration not stated),> 200 µM,141 µM,–
c1ccc2c3csccc-3nc2c1,> 200 µM,97.7 µM,–
c1csc(-c2cc(-c3ccsc3)c(-c3cccs3)s2)c1,> 200 µM,107 µM,–
CC(=O)NC1=C(C)C(=O)c2c(nc3n2CCC3O)C1=N (configuration not stated),> 200 µM,24 µM,–
Nc1ncc(N)c(N)n1,> 200 µM,132 µM,–
Cc1c(N=Nc2ccc(Cl)cc2)c(-c2ccccc2)n(C2OC(CO)C(O)C(O)C2O)c(=S)c1C#N (configuration not stated),> 200 µM,37.2 µM,–
Cc1[nH]n(C2=NCCN2)c(=O)c1C,> 200 µM,> 200 µM,–
O=C(/C=C/c1ccccc1)CCN1CCN(CCC(=O)/C=C/c2ccccc2)CC1,> 200 µM,1.51 µM,–
CC(=O)N(C)c1ccc(N=CN(C)C)cc1,> 200 µM,> 200 µM,–
O=C(Nc1cccc(Cl)c1)C(=O)C(C(=O)c1ccc2ccccc2c1)C1OC(=O)c2ccccc21 (configuration not stated),> 74.1 µM,33.9 µM,–
N#Cc1c(N2CCN(c3ccc([N+](=O)[O-])cc3)CC2)[n+](=O)c2ccc(Cl)cc2n1[O-],> 20 µM,0.631 µM,–
CC(C)=CC1CC(=O)C1(C)Sc1ccccc1 (configuration not stated),> 40.7 µM,> 40.7 µM,–
CC(=O)OC1C(COC(N)=O)OC(n2c(-c3ccc(C)cc3)cc(-c3ccccc3)c(C#N)c2=O)C(OC(C)=O)C1OC(C)=O (configuration not stated),> 11.5 µM,> 11.5 µM,–
O=C1NC23C4C5C6C4C2(N1)C6C53 (configuration not stated),> 1550 µM,891 µM,–
CCc1cccc(CC)c1NC(=O)C1=C(C)NC(C)=C(C(=O)Nc2c(CC)cccc2CC)C1c1ccc([N+](=O)[O-])cc1,> 44.7 µM,> 44.7 µM,–
CCOc1ccc2ccccc2c1NC1=NCCO1,> 200 µM,107 µM,–
CNC(=O)OCc1cnc([N+](=O)[O-])n1C,> 200 µM,> 200 µM,–
CCSCCCCCCCCCCC(=O)OCC1OC(n2cc(C)c(=O)[nH]c2=O)CC1N=[N+]=[N-] (configuration not stated),0.0479 µM,49 µM,–

# — PubChem BioAssay AID179 (DTP/NCI, 2004)
